Experimental data as given in patent US8952034B2, “Fused heterocyclic compounds as ion channel modulators” (Gilead Sciences, Inc., priority 2009, dated 2015).

target: wild-type human cardiac sodium channel, hNav1.5 (Homo sapiens, UniProt Q14524); test: Late INa screening assay (automated whole cell patch clamp, PatchXpress); type: cell-based; details: compound at 1 μM; HEK293 cells expressing hNav1.5; late INa generated with 10 μM Tefluthrin (or 50 nM ATX II); read-out: LateINa_1 uM (percent block of late INa)
Sequence (Q14524 whole entry): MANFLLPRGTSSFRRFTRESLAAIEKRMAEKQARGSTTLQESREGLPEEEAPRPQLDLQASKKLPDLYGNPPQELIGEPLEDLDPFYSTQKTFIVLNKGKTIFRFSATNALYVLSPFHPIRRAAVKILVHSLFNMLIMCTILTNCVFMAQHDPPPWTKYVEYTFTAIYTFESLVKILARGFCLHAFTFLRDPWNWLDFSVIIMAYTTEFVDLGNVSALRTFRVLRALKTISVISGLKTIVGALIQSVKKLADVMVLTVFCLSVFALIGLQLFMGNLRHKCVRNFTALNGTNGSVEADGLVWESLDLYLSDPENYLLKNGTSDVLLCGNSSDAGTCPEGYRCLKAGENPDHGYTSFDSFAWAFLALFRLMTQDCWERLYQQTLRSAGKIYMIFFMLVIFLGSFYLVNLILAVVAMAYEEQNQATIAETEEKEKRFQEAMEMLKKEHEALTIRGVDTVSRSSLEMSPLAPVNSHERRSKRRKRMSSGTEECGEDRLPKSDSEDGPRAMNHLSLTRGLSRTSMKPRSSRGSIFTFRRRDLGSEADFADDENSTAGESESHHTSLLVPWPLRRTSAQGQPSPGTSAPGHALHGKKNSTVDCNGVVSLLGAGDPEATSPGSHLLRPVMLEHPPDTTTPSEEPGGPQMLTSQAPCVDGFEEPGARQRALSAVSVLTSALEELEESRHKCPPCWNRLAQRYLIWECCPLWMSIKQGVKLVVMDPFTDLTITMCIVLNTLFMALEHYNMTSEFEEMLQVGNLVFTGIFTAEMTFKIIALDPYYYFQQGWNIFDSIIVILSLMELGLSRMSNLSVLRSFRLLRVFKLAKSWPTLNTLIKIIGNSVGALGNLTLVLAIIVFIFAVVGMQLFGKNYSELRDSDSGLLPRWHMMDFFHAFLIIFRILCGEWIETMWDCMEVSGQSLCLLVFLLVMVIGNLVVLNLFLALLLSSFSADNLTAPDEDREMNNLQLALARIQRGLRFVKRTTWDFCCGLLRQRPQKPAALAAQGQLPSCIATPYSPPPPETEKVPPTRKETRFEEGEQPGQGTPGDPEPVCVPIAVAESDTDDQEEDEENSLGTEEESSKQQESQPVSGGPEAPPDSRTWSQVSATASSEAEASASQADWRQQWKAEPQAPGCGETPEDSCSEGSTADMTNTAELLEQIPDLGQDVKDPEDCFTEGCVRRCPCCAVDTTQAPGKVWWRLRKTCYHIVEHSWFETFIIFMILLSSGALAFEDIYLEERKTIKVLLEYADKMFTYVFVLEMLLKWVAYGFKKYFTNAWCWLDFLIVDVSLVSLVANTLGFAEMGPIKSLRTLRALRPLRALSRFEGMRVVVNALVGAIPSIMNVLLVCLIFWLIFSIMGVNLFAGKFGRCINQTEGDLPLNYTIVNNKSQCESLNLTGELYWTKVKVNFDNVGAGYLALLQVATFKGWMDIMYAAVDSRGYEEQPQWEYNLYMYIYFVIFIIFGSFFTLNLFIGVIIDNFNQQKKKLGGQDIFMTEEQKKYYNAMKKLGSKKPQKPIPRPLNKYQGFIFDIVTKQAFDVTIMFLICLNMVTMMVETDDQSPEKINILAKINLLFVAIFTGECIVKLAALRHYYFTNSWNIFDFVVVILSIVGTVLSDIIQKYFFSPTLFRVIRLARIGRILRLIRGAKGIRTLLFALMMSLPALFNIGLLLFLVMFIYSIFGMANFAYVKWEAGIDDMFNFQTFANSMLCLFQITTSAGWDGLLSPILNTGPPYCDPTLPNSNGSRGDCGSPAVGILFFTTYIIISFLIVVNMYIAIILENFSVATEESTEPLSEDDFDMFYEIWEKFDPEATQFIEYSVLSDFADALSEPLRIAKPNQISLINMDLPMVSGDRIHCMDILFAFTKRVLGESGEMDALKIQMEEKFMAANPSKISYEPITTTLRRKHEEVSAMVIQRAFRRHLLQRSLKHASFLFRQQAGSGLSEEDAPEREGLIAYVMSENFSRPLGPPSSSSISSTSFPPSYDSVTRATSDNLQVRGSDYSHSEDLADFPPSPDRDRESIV
Procedure: The late sodium current (Late INa) and peak sodium current (Peak INa) assays are performed on an automated electrophysiology platform, PatchXpress 7000A (MDS Analytical Technologies, Sunnyvale, Calif.), which uses the whole cell patch clamp technique to measure currents through the cell membrane of up to 16 cells at a time. The assay uses an HEK293 (human embryonic kidney) cell line heterologously expressing the wild-type human cardiac sodium channel, hNav1.5, purchased from Millipore (Billerica, Mass.). No beta subunits were coexpressed with the Na channel alpha subunit. Cells are maintained with standard tissue culture procedures and stable channel expression is maintained with 400 μg/ml Geneticin in the culture medium. […] Experiments are carried out at 24-27° C.
For both the Late INa and Peak INa assays, series resistance compensation is set to 50% and whole-cell compensation is performed automatically. […] Currents through open sodium channels are automatically recorded and stored in the DataXpress2 database (MDS Analytical Technologies, Sunnyvale, Calif.). Analysis is performed using DataXpress2 analysis software and data are compiled in Excel.
Compound stocks are routinely made in glass vials to 10 mM in dimethyl sulfoxide (DMSO). In some cases, when compounds are not soluble in DMSO, they are made in 100% ethanol. Stocks are sonicated as necessary. The extracellular solution for screening Late INa is composed of: 140 mM NaCl, 4 mM KCl, 1.8 mM CaCl2, 0.75 mM MgCl2, and 5 mM HEPES with pH adjusted to 7.4 using NaOH. The extracellular solution for screening Peak INa is composed of: 20 mM NaCl, 120 mM N-methyl-D glucamine, 4 mM KCl, 1.8 mM CaCl2, 0.75 mM MgCl2, and 5 mM HEPES with pH adjusted to 7.4 using HCl. The intracellular solution used to perfuse the inside of the cells for both the Late INa and Peak INa assays contains: 120 mM CsF, 20 mM CsCl, 5 mM EGTA, 5 mM HEPES and pH adjusted to 7.4 with CsOH. […] The 0Na extracellular solution used at the end of each experiment for the Late INa and Peak INa assays to measure baseline current contains: 140 mM N-methyl-D-glucamine; 4 mM KCl; 1.8 mM CaCl2; 0.75 mM MgCl2; 5 mM HEPES and pH was adjusted to 7.4 with HCl.
For the Late INa assay, sodium channels are activated every 10 seconds (0.1 Hz) by depolarizing the cell membrane to −20 mV for 250 milliseconds (ms) from a holding potential of −120 mV. In response to a −20 mV voltage step, typical Nav1.5 sodium currents activate rapidly to a peak negative current and then inactivate nearly completely within […].
All compounds are tested to determine their activity in blocking the late sodium current. Late INa current is generated by adding 10 μM Tefluthrin (pyrethroid) to the extracellular solution while recording Na currents For some experiments, 50 nM ATX II (sea anemone toxin), another late INa activator, was used to generate the late component. […] After establishing the whole cell recording configuration, late INa activators are added to each well 4 times over a 16-17 minute period so that the late component of the Na current reaches a stable value. […] Measurements are made at the end of exposure to the third compound addition and values are normalized to the current level when all Na^+ is removed from the extracellular solution after two additions of 0Na-ECF. Results are reported as percent block of late INa

Row | Compound | inhibition at 1 µM
1 | CC(O)C(F)(F)c1nnc2ccc(-c3ccc(OC(F)(F)F)cc3)cn12 (stereo not drawn) [BHN-165, 1,1-difluoro-1-{6-[4-(trifluoromethoxy)phenyl][1,2,4]triazolo[4,3-a]pyridin-3-yl}propan-2-ol] | 28.1%
2 | FC(F)(F)Oc1ccc(-c2ccc3nnc(C(F)(F)F)n3c2)c2cccnc12 [BHN-108, 8-(trifluoromethoxy)-5-[3-(trifluoromethyl)[1,2,4]triazolo[4,3-a]pyridin-6-yl]quinoline] | 45.7%
3 | Cc1ccc(COCc2nnc3ccc(-c4ccc(OC(F)(F)F)cc4)cn23)c(C)c1 [BHN-251, 3-{[(2,4-dimethylbenzyl)oxy]methyl}-6-[4-(trifluoromethoxy)phenyl][1,2,4]triazolo[4,3-a]pyridine] | 75.8%
4 | Cn1nc(C2CC2)cc1COC(F)(F)c1nnc2ccc(-c3ccc(OC(F)(F)F)cc3)cn12 [BHN-266, 3-{[(3-cyclopropyl-1-methyl-1H-pyrazol-5-yl)methoxy](difluoro)methyl}-6-[4-(trifluoromethoxy)phenyl][1,2,4]triazolo[4,3-a]pyridine] | 50.2%
5 | FC(F)(F)c1nnc2ccc(-c3ccc(OCC4CC4)cc3)cn12 [BHN-151, 6-[4-(cyclopropylmethoxy)phenyl]-3-(trifluoromethyl)[1,2,4]triazolo[4,3-a]pyridine] | 43.1%
6 | CS(=O)(=O)NCC(F)(F)c1nnc2ccc(-c3ccc(OC(F)(F)F)cc3)cn12 [BHN-175, N-(2,2-difluoro-2-{6-[4-(trifluoromethoxy)phenyl][1,2,4]triazolo[4,3-a]pyridin-3-yl}ethyl)methanesulfonamide] | 16.3%
7 | FC(F)(F)c1ccc(C#Cc2ccc3nnc(C(F)(F)F)n3c2)cc1 [BHN-177, 3-(trifluoromethyl)-6-{[4-(trifluoromethyl)phenyl]ethynyl}[1,2,4]triazolo[4,3-a]pyridine] | 23.6%
8 | FC(F)(F)Oc1ccc(-c2ccc3nnc(C(F)(F)OCc4ccccc4-n4cncn4)n3c2)cc1 [BHN-311, 3-(difluoro{[2-(1H-1,2,4-triazol-1-yl)benzyl]oxy}methyl)-6-[4-(trifluoromethoxy)phenyl][1,2,4]triazolo[4,3-a]pyridine] | 47.3%
9 | FC(F)(F)Oc1ccc(-c2ccc3nnc(COCc4ccccc4C(F)(F)F)n3c2)cc1 [BHN-239, 6-[4-(trifluoromethoxy)phenyl]-3-({[2-(trifluoromethyl)benzyl]oxy}methyl)[1,2,4]triazolo[4,3-a]pyridine] | 65.1%
10 | CCc1nnc2ccc(-c3ccc(Oc4ccccc4)cc3)nn12 [BHN-38, 3-ethyl-6-(4-phenoxyphenyl)[1,2,4]triazolo[4,3-b]pyridazine] | 54.5%
11 | COCc1c(-c2ccc(OC(F)(F)F)cc2)ccc2nnc(C(F)(F)F)n12 [BHN-277, 5-(methoxymethyl)-6-[4-(trifluoromethoxy)phenyl]-3-(trifluoromethyl)[1,2,4]triazolo[4,3-a]pyridine] | 38%
12 | FC(F)(F)c1ncc(-c2ccc3nnc(C(F)(F)F)n3c2)cn1 [BHN-122, 3-(trifluoromethyl)-6-[2-(trifluoromethyl)pyrimidin-5-yl][1,2,4]triazolo[4,3-a]pyridine] | 31.8%
13 | FC(F)(F)Oc1ccc(-c2ccc3nnc(COCc4ccccc4)n3c2)cc1 [BHN-127, 3-[(benzyloxy)methyl]-6-[4-(trifluoromethoxy)phenyl][1,2,4]triazolo[4,3-a]pyridine] | 93.2%
14 | CC(OC(F)(F)c1cccnc1)c1nnc2ccc(-c3ccc(OC(F)(F)F)cc3)cn12 (stereo not drawn) [BHN-249, 3-{1-[difluoro(pyridin-3-yl)methoxy]ethyl}-6-[4-(trifluoromethoxy)phenyl][1,2,4]triazolo[4,3-a]pyridine] | 22.7%
15 | FC(F)(F)Oc1ccc(-c2ccc3nnc(C#CC4CC4)n3c2)cc1 [BHN-171, 3-(cyclopropylethynyl)-6-[4-(trifluoromethoxy)phenyl][1,2,4]triazolo[4,3-a]pyridine] | 49.3%
16 | FC(F)(F)Oc1ccc(-c2ccc3nnc(-c4ccc(OC(F)(F)F)cc4)n3n2)cc1 [BHN-118, 3,6-bis[4-(trifluoromethoxy)phenyl][1,2,4]triazolo[4,3-b]pyridazine] | 46.3%
17 | FC(F)(F)Oc1ccc(-c2ccc3nnc(C(F)(F)OCc4ccccc4)n3c2)cc1 [BHN-148, 3-[(benzyloxy)(difluoro)methyl]-6-[4-(trifluoromethoxy)phenyl][1,2,4]triazolo[4,3-a]pyridine] | 71.7%
18 | FC(F)(F)Oc1ccc(-c2ccc3nnc(Oc4ccccc4)n3c2)cc1 [BHN-143, 3-phenoxy-6-[4-(trifluoromethoxy)phenyl][1,2,4]triazolo[4,3-a]pyridine] | 81.4%
19 | OCc1nc(C(F)(F)F)n2cc(-c3ccc(OC(F)(F)F)cc3)ccc12 [BHN-125, {6-[4-(trifluoromethoxy)phenyl]-3-(trifluoromethyl)imidazo[1,5-a]pyridin-1-yl}methanol] | 33.9%
20 | c1ccc(Oc2ccc(-c3ccc4nnc(C5CC5)n4n3)cc2)cc1 [BHN-39, 3-cyclopropyl-6-(4-phenoxyphenyl)[1,2,4]triazolo[4,3-b]pyridazine] | 44.4%
21 | COCC(F)(F)c1nnc2ccc(-c3ccc(OCC(F)(F)F)nc3)cn12 [BHN-144, 3-(1,1-difluoro-2-methoxyethyl)-6-[6-(2,2,2-trifluoroethoxy)pyridin-3-yl][1,2,4]triazolo[4,3-a]pyridine] | 36.4%
22 | FC(F)(F)Oc1ccc(-c2ccc3nnc(C(F)(F)OCc4cn(Cc5ccccc5)nn4)n3c2)cc1 [BHN-297, 3-{[(1-benzyl-1H-1,2,3-triazol-4-yl)methoxy](difluoro)methyl}-6-[4-(trifluoromethoxy)phenyl][1,2,4]triazolo[4,3-a]pyridine] | 63.4%
23 | COCC(F)(F)c1nnc2ccc(C#Cc3ccccc3)cn12 [BHN-192, 3-(1,1-difluoro-2-methoxyethyl)-6-(phenylethynyl)[1,2,4]triazolo[4,3-a]pyridine] | 31%
24 | COc1cc(-c2ccc(OC(F)(F)F)cc2)cn2c(C(F)F)nnc12 [BHN-126, 3-(difluoromethyl)-8-methoxy-6-[4-(trifluoromethoxy)phenyl][1,2,4]triazolo[4,3-a]pyridine] | 26.9%
25 | Fc1cc(-c2ccc3nnc(C(F)(F)F)n3c2)ccc1OC(F)(F)F [BHN-146, 6-[3-fluoro-4-(trifluoromethoxy)phenyl]-3-(trifluoromethyl)[1,2,4]triazolo[4,3-a]pyridine] | 58.2%

same assay, conditions: compound at 10 μM; HEK293 cells expressing hNav1.5; late INa generated with 10 μM Tefluthrin (or 50 nM ATX II); read-out: LateINa_10 uM (percent block of late INa)

Row | Compound | inhibition at 10 µM
26 | N#Cc1ccc(-c2nnc3ccc(-c4ccc(Oc5ccccc5)cc4)nn23)cc1 [BHN-40, 4-[6-(4-phenoxyphenyl)[1,2,4]triazolo[4,3-b]pyridazin-3-yl]benzonitrile] | 38.2%
27 | FC(F)(F)c1nnc2ccc(-c3ccc(Oc4cnccn4)cc3)cn12 [BHN-94, 6-[4-(pyrazin-2-yloxy)phenyl]-3-(trifluoromethyl)[1,2,4]triazolo[4,3-a]pyridine] | 27.5%
28 | FC(F)(F)Oc1ccc(-c2ccc3nnc(C(F)(F)F)n3c2)c2cccnc12 [BHN-108, 8-(trifluoromethoxy)-5-[3-(trifluoromethyl)[1,2,4]triazolo[4,3-a]pyridin-6-yl]quinoline] | 63.1%
29 | CCc1nnc2ccc(-c3ccc(Oc4ccccc4)cc3)nn12 [BHN-38, 3-ethyl-6-(4-phenoxyphenyl)[1,2,4]triazolo[4,3-b]pyridazine] | 79.3%
30 | Cc1cc(OC(F)(F)F)ccc1-c1cc(N)c2nnc(C)n2c1 [BHN-70, 3-methyl-6-[2-methyl-4-(trifluoromethoxy)phenyl][1,2,4]triazolo[4,3-a]pyridin-8-amine] | 40.4%
31 | FC(F)(F)c1nnc2cnc(-c3ccc(Oc4ccccc4)cc3)cn12 [BHN-16, 6-(4-phenoxyphenyl)-3-(trifluoromethyl)[1,2,4]triazolo[4,3-a]pyrazine] | 54.3%
32 | CN(C)Cc1cc(-c2ccc3nnc(C(F)(F)F)n3c2)ccc1OC(F)(F)F [BHN-83, N,N-dimethyl-1-{2-(trifluoromethoxy)-5-[3-(trifluoromethyl)[1,2,4]triazolo[4,3-a]pyridin-6-yl]phenyl}methanamine] | 29.8%
33 | c1ccc(Oc2ccc(-c3ccc4nnc(C5CC5)n4n3)cc2)cc1 [BHN-39, 3-cyclopropyl-6-(4-phenoxyphenyl)[1,2,4]triazolo[4,3-b]pyridazine] | 74.3%
